# Source: PubChem BioAssay (NCI)
#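 Exposure lasted 48 hours, with cells grown in 96-well plates and compounds tested at five concentrations. Abbreviation: GI50, concentration required for 50% inhibition of growth. TGI marks complete inhibition of growth.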
# What was measured:
# Assay in all cases: NCI tumour cell line growth inhibition, 48 h
# 786-0 renal = tested on: 786-0 renal
# A498 renal = tested on: A498 renal
# A549 NSCLC = tested on: A549 NSCLC
# ACHN renal = tested on: ACHN renal
# BT-549 breast = tested on: BT-549 breast
# CAKI-1 renal = tested on: CAKI-1 renal
# CCRF-CEM leukemia = tested on: CCRF-CEM leukemia
# COLO 205 colon = tested on: COLO 205 colon
# DU-145 prostate = tested on: DU-145 prostate
# EKVX NSCLC = tested on: EKVX NSCLC
# HCC-2998 colon = tested on: HCC-2998 colon
# HCT-116 colon = tested on: HCT-116 colon
# HCT-15 colon = tested on: HCT-15 colon
# HL-60(TB) leukemia = tested on: HL-60(TB) leukemia
# HOP-62 NSCLC = tested on: HOP-62 NSCLC
# HOP-92 NSCLC = tested on: HOP-92 NSCLC
# HS 578T breast = tested on: HS 578T breast
# HT29 colon = tested on: HT29 colon
# IGROV1 ovarian = tested on: IGROV1 ovarian
# K-562 leukemia = tested on: K-562 leukemia
# KM12 colon = tested on: KM12 colon
# LOX IMVI melanoma = tested on: LOX IMVI melanoma
# M14 melanoma = tested on: M14 melanoma
# MALME-3M melanoma = tested on: MALME-3M melanoma
# MCF7 breast = tested on: MCF7 breast
# MDA-MB-231 breast = tested on: MDA-MB-231 breast
# MDA-MB-435 = tested on: MDA-MB-435
# MOLT-4 leukemia = tested on: MOLT-4 leukemia
# NCI-H226 lung = tested on: NCI-H226 lung
# NCI-H23 lung = tested on: NCI-H23 lung
# NCI-H460 lung = tested on: NCI-H460 lung
# NCI-H522 lung = tested on: NCI-H522 lung
# NCI/ADR-RES ovarian = tested on: NCI/ADR-RES ovarian
# OVCAR-3 ovarian = tested on: OVCAR-3 ovarian
# OVCAR-4 ovarian = tested on: OVCAR-4 ovarian
# OVCAR-5 ovarian = tested on: OVCAR-5 ovarian
# OVCAR-8 ovarian = tested on: OVCAR-8 ovarian
# PC-3 prostate = tested on: PC-3 prostate
# RPMI-8226 leukemia = tested on: RPMI-8226 leukemia
# RXF 393 renal = tested on: RXF 393 renal
# SF-268 CNS = tested on: SF-268 CNS
# SF-295 CNS = tested on: SF-295 CNS
# SF-539 CNS = tested on: SF-539 CNS
# SK-MEL-2 melanoma = tested on: SK-MEL-2 melanoma
# SK-MEL-28 melanoma = tested on: SK-MEL-28 melanoma
# SK-MEL-5 melanoma = tested on: SK-MEL-5 melanoma
# SK-OV-3 ovarian = tested on: SK-OV-3 ovarian
# SN12C renal = tested on: SN12C renal
# SNB-19 CNS = tested on: SNB-19 CNS
# SNB-75 CNS = tested on: SNB-75 CNS
# SR leukemia = tested on: SR leukemia
# SW-620 colon = tested on: SW-620 colon
# T-47D breast = tested on: T-47D breast
# TK-10 renal = tested on: TK-10 renal
# U251 CNS = tested on: U251 CNS
# UACC-257 melanoma = tested on: UACC-257 melanoma
# UACC-62 melanoma = tested on: UACC-62 melanoma
# UO-31 renal = tested on: UO-31 renal
compound,measurement,setting,value
N#Cc1c(-c2ccccc2)cc(-c2ccccc2)n(CCCC(=O)NO)c1=O,GI50,786-0 renal,1600 nM
same,TGI,786-0 renal,5850 nM
same,GI50,A498 renal,788 nM
same,TGI,A498 renal,2950 nM
same,GI50,A549 NSCLC,2200 nM
same,TGI,A549 NSCLC,7950 nM
same,GI50,ACHN renal,494 nM
same,TGI,ACHN renal,3590 nM
same,GI50,BT-549 breast,2770 nM
same,TGI,BT-549 breast,14100 nM
same,GI50,CAKI-1 renal,473 nM
same,TGI,CAKI-1 renal,2650 nM
same,GI50,CCRF-CEM leukemia,847 nM
same,TGI,CCRF-CEM leukemia,7150 nM
same,GI50,COLO 205 colon,1970 nM
same,TGI,COLO 205 colon,4970 nM
same,GI50,DU-145 prostate,2660 nM
same,TGI,DU-145 prostate,10500 nM
same,GI50,EKVX NSCLC,1800 nM
same,TGI,EKVX NSCLC,7810 nM
same,GI50,HCC-2998 colon,2170 nM
same,TGI,HCC-2998 colon,8660 nM
same,GI50,HCT-116 colon,1670 nM
same,TGI,HCT-116 colon,6700 nM
same,GI50,HCT-15 colon,434 nM
same,TGI,HCT-15 colon,10700 nM
same,GI50,HL-60(TB) leukemia,1810 nM
same,TGI,HL-60(TB) leukemia,5430 nM
same,GI50,HOP-62 NSCLC,2000 nM
same,TGI,HOP-62 NSCLC,6980 nM
same,GI50,HOP-92 NSCLC,1970 nM
same,TGI,HOP-92 NSCLC,7530 nM
same,GI50,HS 578T breast,1810 nM
same,TGI,HS 578T breast,8500 nM
same,GI50,HT29 colon,2580 nM
same,TGI,HT29 colon,8580 nM
same,GI50,IGROV1 ovarian,1690 nM
same,TGI,IGROV1 ovarian,4770 nM
same,GI50,K-562 leukemia,729 nM
same,TGI,K-562 leukemia,12900 nM
same,GI50,KM12 colon,1100 nM
same,TGI,KM12 colon,11800 nM
same,GI50,LOX IMVI melanoma,1630 nM
same,TGI,LOX IMVI melanoma,3410 nM
same,GI50,M14 melanoma,898 nM
same,TGI,M14 melanoma,10100 nM
same,GI50,MALME-3M melanoma,704 nM
same,TGI,MALME-3M melanoma,11500 nM
same,GI50,MCF7 breast,1700 nM
same,TGI,MCF7 breast,10600 nM
same,GI50,MDA-MB-231 breast,2900 nM
same,TGI,MDA-MB-231 breast,10400 nM
same,GI50,MDA-MB-435,324 nM
same,TGI,MDA-MB-435,10700 nM
same,GI50,MOLT-4 leukemia,1220 nM
same,TGI,MOLT-4 leukemia,5980 nM
same,GI50,NCI-H226 lung,2240 nM
same,TGI,NCI-H226 lung,7410 nM
same,GI50,NCI-H23 lung,2770 nM
same,TGI,NCI-H23 lung,9940 nM
same,GI50,NCI-H460 lung,1720 nM
same,TGI,NCI-H460 lung,8780 nM
same,GI50,NCI-H522 lung,1330 nM
same,TGI,NCI-H522 lung,5890 nM
same,GI50,NCI/ADR-RES ovarian,541 nM
same,TGI,NCI/ADR-RES ovarian,3720 nM
same,GI50,OVCAR-3 ovarian,1610 nM
same,TGI,OVCAR-3 ovarian,4600 nM
same,GI50,OVCAR-4 ovarian,1920 nM
same,TGI,OVCAR-4 ovarian,11800 nM
same,GI50,OVCAR-5 ovarian,2300 nM
same,TGI,OVCAR-5 ovarian,8430 nM
same,GI50,OVCAR-8 ovarian,1140 nM
same,TGI,OVCAR-8 ovarian,8670 nM
same,GI50,PC-3 prostate,2130 nM
same,TGI,PC-3 prostate,14400 nM
same,GI50,RPMI-8226 leukemia,1140 nM
same,TGI,RPMI-8226 leukemia,3800 nM
same,GI50,RXF 393 renal,939 nM
same,TGI,RXF 393 renal,2740 nM
same,GI50,SF-268 CNS,2310 nM
same,TGI,SF-268 CNS,6720 nM
same,GI50,SF-295 CNS,2150 nM
same,TGI,SF-295 CNS,5020 nM
same,GI50,SF-539 CNS,1680 nM
same,TGI,SF-539 CNS,5030 nM
same,GI50,SK-MEL-2 melanoma,2020 nM
same,TGI,SK-MEL-2 melanoma,10000 nM
same,GI50,SK-MEL-28 melanoma,2880 nM
same,TGI,SK-MEL-28 melanoma,12700 nM
same,GI50,SK-MEL-5 melanoma,1890 nM
same,TGI,SK-MEL-5 melanoma,4740 nM
same,GI50,SK-OV-3 ovarian,1980 nM
same,TGI,SK-OV-3 ovarian,5230 nM
same,GI50,SN12C renal,2340 nM
same,TGI,SN12C renal,10300 nM
same,GI50,SNB-19 CNS,2700 nM
same,TGI,SNB-19 CNS,13000 nM
same,GI50,SNB-75 CNS,1240 nM
same,TGI,SNB-75 CNS,4850 nM
same,GI50,SR leukemia,361 nM
same,TGI,SR leukemia,3650 nM
same,GI50,SW-620 colon,1930 nM
same,TGI,SW-620 colon,12600 nM
same,GI50,T-47D breast,1830 nM
same,TGI,T-47D breast,8340 nM
same,GI50,TK-10 renal,1000 nM
same,TGI,TK-10 renal,11100 nM
same,GI50,U251 CNS,1690 nM
same,TGI,U251 CNS,4620 nM
same,GI50,UACC-257 melanoma,1730 nM
same,TGI,UACC-257 melanoma,7380 nM
same,GI50,UACC-62 melanoma,1820 nM
same,TGI,UACC-62 melanoma,5630 nM
same,GI50,UO-31 renal,392 nM
same,TGI,UO-31 renal,2300 nM
